How the values were obtained:
[1] = tested on: Nurr1 target genes; test: Transcription of Nurr1 target genes in live zebrafish; assay type: in vivo
From the text: (§1) Dopamine is broken down inside the neurons that produce it, generating oxygen free-radicals and other potentially damaging molecules (53). Among the reactive metabolites is 5,6-dihydroxyindole (DHI), a compound that undergoes spontaneous oxidation to a reactive quinone, which oligomerizes to form a polymer (neuromelanin) of unknown function. This polymer accounts for the dark appearance of nigrostriatal neurons in the normal adult CNS (54,55). Dopamine is also a central player in stress and addiction (3). It is clear that dopamine levels need to be tightly regulated in the CNS. Nurr1 controls all the genes required for dopamine synthesis, but its regulation is poorly understood as the receptor lacks both the canonical NR ligand binding pocket and the classic NR co-regulator binding surface (33). We postulated that Nurr1 might be regulated by dopamine itself, or one of its metabolites, and investigated this possibility using a combination of biophysical and structural techniques. […] Identifying stable analogs of DHI will enable more detailed studies of this intriguing biology.

[2] = target: T1, Nurr1 LBD (Homo sapiens, UniProt P43354); test: Differential scanning fluorimetry (DSF); assay type: binding
T1 sequence (P43354 360-595 limits assumed): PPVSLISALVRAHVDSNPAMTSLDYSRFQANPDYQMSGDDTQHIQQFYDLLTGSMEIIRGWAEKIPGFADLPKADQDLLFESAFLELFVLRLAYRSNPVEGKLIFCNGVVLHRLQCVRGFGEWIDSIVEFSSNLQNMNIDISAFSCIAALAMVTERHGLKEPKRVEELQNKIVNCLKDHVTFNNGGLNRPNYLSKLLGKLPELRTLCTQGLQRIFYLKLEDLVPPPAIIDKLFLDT
From the text: as §1

[3] = target: T1, Nurr1 LBD; test: Surface plasmon resonance (SPR) assay; assay type: binding
Description: Surface Plasmon Resonance Assays. Data were collected using Biacore T200 (GE) instrument at a flow rate of 30 μL/min and at a temperature of 25° C. The running buffer was 25 mM HEPES, pH 7.4, 150 mM NaCl, 0.05% Surfactant Tween 20, and 2% DMSO. The biotinylated Nurr1 LBD was immobilized on a sensor chip SA (GE Healthcare Life Sciences; product number 29104992) or at 6000-7000 RU, or a CAP chip (GE Healthcare Life Sciences; product number 28920234) at 1500-2000 RU. Data collection was performed with kinetic titration mode. Analytes dilutions were carried out starting from DMSO stocks (10 mM). Analytes dissolved in DMSO were added to 1.02x running buffer without DMSO to yield a final DMSO concentration of 2%. When using CAP chip, surface regeneration was performed between each titration curve using 6 M guanidine.HCl+0.25 M NaOH regeneration solution followed by re-immobilization of Nurr1 (as described in the manufacturer's regeneration protocol). Data processing included double referencing (i.e., reference flow cell and buffer subtracted using a buffer injection of appropriate contact time for the given injection). Solvent correction was performed using a standard curve in a range of 1.8-2.3% DMSO.

[4] = target: T2, Nurr1 ligand binding domain (Homo sapiens, UniProt P43354); test: Crystal structures of ligands covalently bound to Nurr1; settings: crystal structure, Cys566
T2 sequence (P43354 360-595 limits assumed): as above
From the text: First, we used the Nurr1 ligand binding domain (LBD) and a disulfide-trapping screen to identify 50 compounds that conjugate directly to Nurr1, undergoing a disulfide exchange reaction with Cys566.

[5] = target: T3, Nurr1 LBD fused to Gal4 DBD (Homo sapiens, UniProt P43354); test: Luciferase reporter assay; assay type: cell-based
T3 construct: expressed in transfected cells; host or cells: SK-N-BE(2)C cells (ATCC CRL-2268)
T3 sequence (P43354 328-598): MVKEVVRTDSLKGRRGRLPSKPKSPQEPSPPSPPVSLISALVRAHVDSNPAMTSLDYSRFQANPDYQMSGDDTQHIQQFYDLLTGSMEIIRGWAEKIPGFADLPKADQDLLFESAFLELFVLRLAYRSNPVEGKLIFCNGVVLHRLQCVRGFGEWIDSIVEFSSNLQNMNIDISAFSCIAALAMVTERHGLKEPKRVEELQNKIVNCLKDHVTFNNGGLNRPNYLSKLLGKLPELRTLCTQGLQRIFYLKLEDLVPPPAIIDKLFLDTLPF
Description: In particular, direct binding to the Nurr1 LBD in vitro was measured using microscale thermophoresis (MST) and surface plasmon resonance (SPR), and efficacy in cells was measured using a lucifierase reporter assay (Nurr1 LBD fused to Gal4 DBD, measuring effect on luciferase activity) and target gene transcription assays (full length Nurr1, measuring mRNA levels of specific Nurr1 target genes). These assays pointed to a subset of compounds that bind directly to the Nurr1 LBD (by MST and/or SPR) and produce >1.5-fold changes in Nurr1 activity in cells (by Luc and/or TGT assays) (Table 1, Table 2).
Luciferase Reporter Assays. pBIND—Nurr1 is generated by cloning Nurr1 LBD (a.a. 328-598 of human Nurr1) into pBIND vector (Promega E2440). The pBIND vector also contains a Renilla luciferase gene under the control of the SV40 Promoter that can be used to normalize the transfection efficiency. The firefly luciferase reporter pG5-Luc vector (Promega E2440) contains 5 repeats of GAL4 UAS (upstream activation sequence) upstream of luciferase gene. SK—N— BE(2)C cells (ATCC CRL-2268) were transiently transfected with pBIND—Nurr1 and pG5-Luc by FuGENE HD (Promega, E2311) in 96-well-plate with the seeding density of 200,000 cells/mL. […] After 18 hours, the luminescence of Firefly and Renilla luciferase were measured by Dual Luciferase Reporter Assay System (Promega E1960).

[6] = target: T2, Nurr1 ligand binding domain; test: Microscale thermophoresis (MST) binding assay; settings: measured by microscale thermophoresis
Description: Microscale thermophoresis (MST) assays. Data were collected using the Nanotemper Monolith NT.115 at a temperature of 25° C. The MST buffer used in each experiment was 25 mM HEPES (Sigma Aldrich), pH 7.4, 150 mM NaCl (Alfa Aesar), and 0.02% Pluronic (Sigma Aldrich). All samples were prepared using Protein LoBind tubes or deepwell plates (Eppendorf). The His-tagged Nurr1 was labeled with RED-tris-NTA dye (NT-647) according to the kit's protocol (Nanotemper). Dilutions of each ligand were carried out starting from DMSO stocks of 10 mM in DMSO. The analyte solutions in DMSO were added to aliquots of MST buffer to yield a DMSO concentration of 4%.
Two types of experiments were performed: endpoint and binding affinity assays. For the endpoint assays, equal amounts of the ligand solution and labeled Nurr1 were mixed to yield the final concentrations: 50 nM Nurr1, 25 nM RED-tris-NTA dye, 2% DMSO, and either 25 μM or 100 μM of the desired ligand in the MST buffer. […]
The Monolith NT.115 settings for all samples were 40% excitation power and 40% MST power. The initial fluorescence was recorded for 3 seconds and the thermophoresis fluorescence response was recorded for 20 seconds. […] Screening Analysis software (Nanotemper) was used to normalize the fluorescent response signals to the sample's initial fluorescence. […]

[7] = target: T4, Nurr1 (Homo sapiens, UniProt P43354); test: Binding SPR
T4 sequence (P43354 360-595 limits assumed): as the sequence (P43354 360-595 limits assumed) above

[8] = tested on: Nurr1 target genes in MN9D cells; test: MN9D target gene transcription assay; assay type: cell-based; settings: gene expression normalized to Hprt
Description: MN9D Assays. MN9Dtet-on cells were treated with 10 μM of each compound or DMSO (vehicle control) for 6 to 24 hrs. Total RNAs were isolated using Quick-RNA miniprep Plus (ZYMO Research, cat#: R^1058), and were subsequently reverse transcribed using High Capacity cDNA Reverse Transcription kit (Applied Biosystems, cat#: 4368814). SYBR Green quantitative real-time PCR analysis was performed using CFX96 Real Time system (BioRad). The following primer pairs were used for qPCR: Nurr1; 5′-[…]-3′ (SEQ ID NO:5) and 5′-[…]-3′ (SEQ ID NO:6), Pitx3; 5′-GCAACTGGCCGCCCAAGG-3′ (SEQ ID NO:7) and 5′-AGGCCCCACGTTGACCGA-3′ (SEQ ID NO:8), VMAT2; 5′-[…]-3′ (SEQ ID NO:9) and 5′-[…]-3′ (SEQ ID NO:10), TH; 5′-[…]-3′ (SEQ ID NO:11) and 5′-[…]-3′ (SEQ ID NO:12), HPRT; 5′-TGGGAGGCCATCACATTGT-3′ (SEQ ID NO:13) and 5′-[…]-3′ (SEQ ID NO:14). The levels of gene expression were normalized to the level of housekeeping gene (HPRT) expression.

[9] = target: T4, Nurr1; test: Binding MST
[10] = tested on: TH in SHSY5Y; test: qPCR SHSY5Y TH; assay type: cell-based; settings: Homo sapiens, SH-SY5Y, cpds tested at 10 μM
[11] = tested on: Vmat2 in MN9D; test: cells; assay type: cell-based; settings: cpds tested at 10 μM, analogs of compound 87, read-out: qPCR MN9D Vmat2
[12] = tested on: Pitx3 in MN9D; test: qPCR MN9D Pitx3; assay type: cell-based; settings: cpds tested at 10 μM, analogs of compound 87
[13] = tested on: Nurr1 in MN9D; test: qPCR MN9D Nurr1; assay type: cell-based; settings: cpds tested at 10 μM, analogs of compound 87
[14] = tested on: Th in MN9D; test: qPCR MN9D Th; assay type: cell-based; settings: cpds tested at 10 μM, analogs of compound 87

## Oc1cc2cc[nH]c2cc1O [DHI, 5,6-dihydroxyindole]
[1]; acute exposure (6 h, data not shown)
  Expression of VMAT: drives the expression
[1]; in vivo
  Transcription of Nurr1 target genes in live zebrafish: driving transcription of Nurr1 target genes
[1]; longer exposure (24 h)
  Expression of TH: drives the expression
[2]
  Stabilization of the Nurr1 LBD, melting temperature: increasing the melting temperature by one degree
[3]
  Off-rate: very slow off-rate
[3]; read-out: Kd for binding to Nurr1
  Kd: 5 µM
[4]
  Covalent binding to Nurr1: reversible covalent adduct with Cys566
[5]
  Nurr1 activity in the reporter assay: stimulating Nurr1 activity

## O=C(COc1ccc(Cl)c(Cl)c1)NCCS [SP 85, 2-(3,4-dichlorophenoxy)-N-(2-mercaptoethyl)acetamide]
[6]
  Binding to the Nurr1 ligand binding domain, affinity: high nanomolar affinity
[7]; analogs of compound 85
  Binding SPR: +
[8]
  Transcription of Nurr1 target genes in MN9D cells: stimulate the transcription of Nurr1 target genes
[9]; analogs of compound 85
  Binding MST: +++

## CC(C)(NC(=O)c1cc(Cl)cc(Cl)c1)c1cn(CCS)nn1 [SP 87, 3,5-dichloro-N-(2-(1-(2-mercaptoethyl)-1H-1,2,3-triazol-4-yl)propan-2-yl)benzamide]
[6]
  Binding to the Nurr1 ligand binding domain, affinity: high nanomolar affinity
[7]; analogs of compound 87
  Binding SPR: +
[8]
  Transcription of Nurr1 target genes in MN9D cells: stimulate the transcription of Nurr1 target genes
[10]
  fold induction at 10 µM: > 1.5
[9]; analogs of compound 87
  Binding MST: +++
[11]
  fold induction at 10 µM: > 4

## CC(=O)SCCn1cc(C(C)(C)NC(=O)c2ccc(Cl)c(Cl)c2)nn1 [SP 171, S-2-(4-(2-(3,4-dichlorobenzamido)propan-2-yl)-1H-1,2,3-triazol-1-yl)ethyl ethanethioate]
[12]
  fold induction at 10 µM: > 4

## CC(=O)SCCn1cc(C(C)(C)NC(=O)c2ccc3ocnc3c2)nn1 [SP 195, S-2-(4-(2-(benzo[d]oxazole-5-carboxamido)propan-2-yl)-1H-1,2,3-triazol-1-yl)ethyl ethanethioate]
[13]
  fold induction at 10 µM: > 1.5
[12]
  fold induction at 10 µM: > 1.5

## CC(=O)SCCn1cc(C(C)(C)NC(=O)c2cccc(C#N)c2)nn1 [SP 196, S-2-(4-(2-(3-cyanobenzamido)propan-2-yl)-1H-1,2,3-triazol-1-yl)ethyl ethanethioate]
[13]
  fold induction at 10 µM: > 4
[14]
  fold induction at 10 µM: > 1.5

## NCCc1ccc(O)c(O)c1 [dopamine]
[2]
  Stabilization of the Nurr1 LBD, melting temperature: not
